# Laboratory results: the supplement of paper PMC10307832
# What was measured:
# Assay in all cases: relative viability (nuclei count vs DMSO), 5 days (fraction); higher = more cells survive
# COR-L 105 = system: COR-L 105
# How it was run: (§1)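 Each reported value is a median over duplicate plates. It expresses relative viability: treated-well nuclei count divided by vehicle-well nuclei count. Lung cancer cell lines in 1536-well plates were dosed by pin tool a day after seeding, alone with one drug or with a fixed anchor-drug dose plus five library-drug doses (not always all listed) in √10 steps, and nuclei were counted after 5 days.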
# COR-L23 = system: COR-L23
# How it was run: as §1
# EKVX = system: EKVX
# How it was run: as §1
# HARA = system: HARA
# How it was run: as §1
# HOP-62 = system: HOP-62
# How it was run: as §1
# NCI-H1355 = system: NCI-H1355
# How it was run: as §1
# NCI-H1395 = system: NCI-H1395
# How it was run: as §1
# NCI-H1734 = system: NCI-H1734
# How it was run: as §1
# NCI-H1755 = system: NCI-H1755
# How it was run: as §1
# NCI-H1793 = system: NCI-H1793
# How it was run: as §1
# NCI-H1993 = system: NCI-H1993
# How it was run: as §1
# NCI-H2009 = system: NCI-H2009
# How it was run: as §1
# NCI-H2170 = system: NCI-H2170
# How it was run: as §1
# NCI-H2228 = system: NCI-H2228
# How it was run: as §1
# NCI-H2342 = system: NCI-H2342
# How it was run: as §1
# NCI-H2347 = system: NCI-H2347
# How it was run: as §1
# NCI-H322M = system: NCI-H322M
# How it was run: as §1
# NCI-H358 = system: NCI-H358
# How it was run: as §1
# NCI-H522 = system: NCI-H522
# How it was run: as §1
# NCI-H647 = system: NCI-H647
# How it was run: as §1
# NCI-H838 = system: NCI-H838
# How it was run: as §1
# PC-14 = system: PC-14
# How it was run: as §1
# SK-MES-1 = system: SK-MES-1
# How it was run: as §1
# UMC-11 = system: UMC-11
# How it was run: as §1
structure (smiles),measurement,setting,value
COc1cc(N2CCC(C(N)=O)CC2)ccc1Nc1nc(N)c(Cl)c(Nc2ccccc2S(=O)(=O)C(C)C)n1 [HG-5-88-01] + CC(=O)Nc1cccc(-n2c(=O)n(C3CC3)c(=O)c3c(Nc4ccc(I)cc4F)n(C)c(=O)c(C)c32)c1 [Trametinib] (partner 0.02 µM),relative viability,COR-L 105; first compound 0.04 µM,0.471
same,relative viability,COR-L 105; first compound 0.1265 µM,0.423
same,relative viability,COR-L 105; first compound 0.4 µM,0.402
same,relative viability,COR-L 105; first compound 1.265 µM,0.319
same,relative viability,COR-L 105; first compound 4 µM,0.421
same,relative viability,COR-L23; first compound 0.04 µM,0.502
same,relative viability,COR-L23; first compound 0.1265 µM,0.664
same,relative viability,COR-L23; first compound 0.4 µM,0.51
same,relative viability,COR-L23; first compound 1.265 µM,0.488
same,relative viability,COR-L23; first compound 4 µM,0.368
same,relative viability,EKVX; first compound 0.04 µM,0.367
same,relative viability,EKVX; first compound 0.1265 µM,0.36
same,relative viability,EKVX; first compound 0.4 µM,0.278
same,relative viability,EKVX; first compound 4 µM,0.266
same,relative viability,HARA; first compound 0.04 µM,1.01
same,relative viability,HARA; first compound 0.1265 µM,0.709
same,relative viability,HARA; first compound 0.4 µM,0.91
same,relative viability,HARA; first compound 1.265 µM,0.394
same,relative viability,HARA; first compound 4 µM,0.465
same,relative viability,HOP-62; first compound 0.04 µM,0.391
same,relative viability,HOP-62; first compound 0.1265 µM,0.411
same,relative viability,HOP-62; first compound 0.4 µM,0.345
same,relative viability,HOP-62; first compound 1.265 µM,0.317
same,relative viability,HOP-62; first compound 4 µM,0.383
same,relative viability,NCI-H1355; first compound 0.04 µM,0.439
same,relative viability,NCI-H1355; first compound 0.1265 µM,0.351
same,relative viability,NCI-H1355; first compound 0.4 µM,0.407
same,relative viability,NCI-H1355; first compound 1.265 µM,0.298
same,relative viability,NCI-H1355; first compound 4 µM,0.323
same,relative viability,NCI-H1395; first compound 0.04 µM,1
same,relative viability,NCI-H1395; first compound 0.1265 µM,1.21
same,relative viability,NCI-H1395; first compound 0.4 µM,1.08
same,relative viability,NCI-H1395; first compound 1.265 µM,0.773
same,relative viability,NCI-H1395; first compound 4 µM,1.13
same,relative viability,NCI-H1734; first compound 0.04 µM,0.669
same,relative viability,NCI-H1734; first compound 0.1265 µM,0.755
same,relative viability,NCI-H1734; first compound 0.4 µM,0.643
same,relative viability,NCI-H1734; first compound 1.265 µM,0.623
same,relative viability,NCI-H1734; first compound 4 µM,0.621
same,relative viability,NCI-H1755; first compound 0.04 µM,0.765
same,relative viability,NCI-H1755; first compound 0.1265 µM,0.72
same,relative viability,NCI-H1755; first compound 0.4 µM,0.773
same,relative viability,NCI-H1755; first compound 1.265 µM,0.78
same,relative viability,NCI-H1755; first compound 4 µM,0.792
same,relative viability,NCI-H1793; first compound 0.04 µM,0.433
same,relative viability,NCI-H1793; first compound 0.1265 µM,0.381
same,relative viability,NCI-H1793; first compound 0.4 µM,0.462
same,relative viability,NCI-H1793; first compound 1.265 µM,0.432
same,relative viability,NCI-H1793; first compound 4 µM,0.578
same,relative viability,NCI-H1993; first compound 0.04 µM,0.413
same,relative viability,NCI-H1993; first compound 0.1265 µM,0.458
same,relative viability,NCI-H1993; first compound 0.4 µM,0.447
same,relative viability,NCI-H1993; first compound 4 µM,0.45
same,relative viability,NCI-H2009; first compound 0.04 µM,0.272
same,relative viability,NCI-H2009; first compound 0.1265 µM,0.271
same,relative viability,NCI-H2009; first compound 0.4 µM,0.264
same,relative viability,NCI-H2009; first compound 1.265 µM,0.211
same,relative viability,NCI-H2009; first compound 4 µM,0.295
same,relative viability,NCI-H2170; first compound 0.04 µM,0.961
same,relative viability,NCI-H2170; first compound 0.1265 µM,0.964
same,relative viability,NCI-H2170; first compound 0.4 µM,0.894
same,relative viability,NCI-H2170; first compound 1.265 µM,0.672
same,relative viability,NCI-H2170; first compound 4 µM,1.03
same,relative viability,NCI-H2228; first compound 0.04 µM,0.214
same,relative viability,NCI-H2228; first compound 0.1265 µM,0.108
same,relative viability,NCI-H2228; first compound 0.4 µM,0.268
same,relative viability,NCI-H2228; first compound 1.265 µM,0.174
same,relative viability,NCI-H2228; first compound 4 µM,0.231
same,relative viability,NCI-H2342; first compound 0.04 µM,0.846
same,relative viability,NCI-H2342; first compound 0.1265 µM,0.939
same,relative viability,NCI-H2342; first compound 0.4 µM,0.865
same,relative viability,NCI-H2342; first compound 4 µM,0.969
same,relative viability,NCI-H2347; first compound 0.04 µM,0.324
same,relative viability,NCI-H2347; first compound 0.1265 µM,0.284
same,relative viability,NCI-H2347; first compound 0.4 µM,0.227
same,relative viability,NCI-H2347; first compound 1.265 µM,0.229
same,relative viability,NCI-H2347; first compound 4 µM,0.247
same,relative viability,NCI-H322M; first compound 0.04 µM,0.486
same,relative viability,NCI-H322M; first compound 0.1265 µM,0.459
same,relative viability,NCI-H322M; first compound 0.4 µM,0.524
same,relative viability,NCI-H322M; first compound 1.265 µM,0.36
same,relative viability,NCI-H322M; first compound 4 µM,0.451
same,relative viability,NCI-H358; first compound 0.04 µM,0.123
same,relative viability,NCI-H358; first compound 0.1265 µM,0.124
same,relative viability,NCI-H358; first compound 0.4 µM,0.131
same,relative viability,NCI-H358; first compound 1.265 µM,0.106
same,relative viability,NCI-H358; first compound 4 µM,0.105
same,relative viability,NCI-H522; first compound 0.04 µM,0.683
same,relative viability,NCI-H522; first compound 0.1265 µM,0.784
same,relative viability,NCI-H522; first compound 0.4 µM,0.695
same,relative viability,NCI-H522; first compound 1.265 µM,0.705
same,relative viability,NCI-H522; first compound 4 µM,0.636
same,relative viability,NCI-H647; first compound 0.04 µM,0.436
same,relative viability,NCI-H647; first compound 0.1265 µM,0.444
same,relative viability,NCI-H647; first compound 1.265 µM,0.488
same,relative viability,NCI-H647; first compound 4 µM,0.527
same,relative viability,NCI-H838; first compound 0.04 µM,0.518
same,relative viability,NCI-H838; first compound 0.1265 µM,0.439
same,relative viability,NCI-H838; first compound 0.4 µM,0.435
same,relative viability,NCI-H838; first compound 1.265 µM,0.409
same,relative viability,NCI-H838; first compound 4 µM,0.354
same,relative viability,PC-14; first compound 0.04 µM,0.825
same,relative viability,PC-14; first compound 0.1265 µM,0.836
same,relative viability,PC-14; first compound 0.4 µM,0.626
same,relative viability,PC-14; first compound 1.265 µM,0.28
same,relative viability,PC-14; first compound 4 µM,0.0722
same,relative viability,SK-MES-1; first compound 0.04 µM,0.535
same,relative viability,SK-MES-1; first compound 0.1265 µM,0.54
same,relative viability,SK-MES-1; first compound 0.4 µM,0.503
same,relative viability,SK-MES-1; first compound 1.265 µM,0.498
same,relative viability,SK-MES-1; first compound 4 µM,0.619
same,relative viability,UMC-11; first compound 0.04 µM,0.532
same,relative viability,UMC-11; first compound 0.1265 µM,0.861
same,relative viability,UMC-11; first compound 0.4 µM,0.727
same,relative viability,UMC-11; first compound 1.265 µM,0.707
same,relative viability,UMC-11; first compound 4 µM,0.531
